Source: article PMC6934184, “Selective DNA-PKcs inhibition extends the therapeutic index of localized radiotherapy and chemotherapy” (The Journal of Clinical Investigation, 2019)

Molecular target: T1, MERTK (cMER) (Homo sapiens, UniProt Q12866)
T1 construct: purchased Thermo Fisher Scientific (Life Technologies) SelectScreen
Test: SelectScreen Z'LYTE
Format: biochemical
In short: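 NU5455 was profiled across the SelectScreen Broad panel of kinase activity and binding assays. Z'LYTE reactions such as CSF1R ran at apparent Km ATP, while the Adapta CAMK1 assay used ATP listed as 10. Values are given as percent.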

T1 sequence (Q12866 21-999): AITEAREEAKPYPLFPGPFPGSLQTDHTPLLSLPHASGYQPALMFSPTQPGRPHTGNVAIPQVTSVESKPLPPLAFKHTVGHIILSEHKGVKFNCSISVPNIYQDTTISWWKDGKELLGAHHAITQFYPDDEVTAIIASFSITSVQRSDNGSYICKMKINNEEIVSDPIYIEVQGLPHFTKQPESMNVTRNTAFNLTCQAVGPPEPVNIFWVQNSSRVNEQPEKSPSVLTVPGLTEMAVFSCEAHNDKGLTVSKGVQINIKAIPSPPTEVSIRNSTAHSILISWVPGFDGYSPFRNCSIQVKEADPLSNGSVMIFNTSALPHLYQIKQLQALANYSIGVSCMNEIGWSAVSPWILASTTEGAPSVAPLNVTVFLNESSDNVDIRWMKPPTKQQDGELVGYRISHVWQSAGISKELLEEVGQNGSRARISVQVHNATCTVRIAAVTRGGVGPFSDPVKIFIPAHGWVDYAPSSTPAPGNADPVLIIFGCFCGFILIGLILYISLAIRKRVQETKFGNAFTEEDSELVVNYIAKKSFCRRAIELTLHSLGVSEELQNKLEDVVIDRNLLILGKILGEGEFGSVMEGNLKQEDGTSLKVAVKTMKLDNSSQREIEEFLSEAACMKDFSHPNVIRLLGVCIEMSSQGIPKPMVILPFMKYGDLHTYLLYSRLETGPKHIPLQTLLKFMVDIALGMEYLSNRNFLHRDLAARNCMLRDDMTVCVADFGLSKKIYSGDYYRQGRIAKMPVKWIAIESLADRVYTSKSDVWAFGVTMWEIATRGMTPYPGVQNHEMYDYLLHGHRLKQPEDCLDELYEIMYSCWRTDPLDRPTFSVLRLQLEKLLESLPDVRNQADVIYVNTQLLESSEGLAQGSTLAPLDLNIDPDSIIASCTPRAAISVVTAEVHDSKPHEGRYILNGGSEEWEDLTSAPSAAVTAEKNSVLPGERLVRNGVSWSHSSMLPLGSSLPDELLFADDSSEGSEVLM

`CN(C(=O)CN1CCOCC1)c1ccc2sc3c(-c4cccc5c(=O)cc(N6CC7CCC(C6)O7)oc45)cccc3c2c1` [NU5455] showed an inhibition at 1 µM of 8.3%.
